The test system of one assay is A-375. The experiment in a line: Growth inhibition of human A375 cells. It is filed as functional, cell-based.
A further assay has as its system LoVo. Description: Growth inhibition of human LoVo cells. It is filed as functional, cell-based.
The subject of another assay is HT-29. Description: Growth inhibition of human HT-29 cells. It is filed as functional, cell-based.
In a further assay the test system is Caco-2. The experiment in a line: Growth inhibition of human Caco-2 cells. It is filed as functional, cell-based.
A short description of assay [1]: Growth inhibition of human WM266.4 cells. It is filed as functional, cell-based. Conditions: WM 266-4.
The target of assay [2] is Cyclin-dependent kinase 4 (Homo sapiens, UniProt P11802). Description: Inhibition of CDK4.
Sequence of Cyclin-dependent kinase 4 (P11802 whole entry): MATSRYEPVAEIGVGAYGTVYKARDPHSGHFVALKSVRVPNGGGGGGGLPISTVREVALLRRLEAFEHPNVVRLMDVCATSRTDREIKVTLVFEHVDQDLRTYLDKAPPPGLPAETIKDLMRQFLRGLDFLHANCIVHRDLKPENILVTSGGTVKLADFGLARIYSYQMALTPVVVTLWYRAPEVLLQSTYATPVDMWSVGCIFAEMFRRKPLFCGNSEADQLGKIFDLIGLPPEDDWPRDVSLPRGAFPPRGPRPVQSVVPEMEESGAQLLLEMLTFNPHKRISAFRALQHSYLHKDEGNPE
Assay [3] deals with T1, Inhibitor of nuclear factor kappa-B kinase subunit beta (Homo sapiens, UniProt O14920).
T1 sequence (O14920 whole entry): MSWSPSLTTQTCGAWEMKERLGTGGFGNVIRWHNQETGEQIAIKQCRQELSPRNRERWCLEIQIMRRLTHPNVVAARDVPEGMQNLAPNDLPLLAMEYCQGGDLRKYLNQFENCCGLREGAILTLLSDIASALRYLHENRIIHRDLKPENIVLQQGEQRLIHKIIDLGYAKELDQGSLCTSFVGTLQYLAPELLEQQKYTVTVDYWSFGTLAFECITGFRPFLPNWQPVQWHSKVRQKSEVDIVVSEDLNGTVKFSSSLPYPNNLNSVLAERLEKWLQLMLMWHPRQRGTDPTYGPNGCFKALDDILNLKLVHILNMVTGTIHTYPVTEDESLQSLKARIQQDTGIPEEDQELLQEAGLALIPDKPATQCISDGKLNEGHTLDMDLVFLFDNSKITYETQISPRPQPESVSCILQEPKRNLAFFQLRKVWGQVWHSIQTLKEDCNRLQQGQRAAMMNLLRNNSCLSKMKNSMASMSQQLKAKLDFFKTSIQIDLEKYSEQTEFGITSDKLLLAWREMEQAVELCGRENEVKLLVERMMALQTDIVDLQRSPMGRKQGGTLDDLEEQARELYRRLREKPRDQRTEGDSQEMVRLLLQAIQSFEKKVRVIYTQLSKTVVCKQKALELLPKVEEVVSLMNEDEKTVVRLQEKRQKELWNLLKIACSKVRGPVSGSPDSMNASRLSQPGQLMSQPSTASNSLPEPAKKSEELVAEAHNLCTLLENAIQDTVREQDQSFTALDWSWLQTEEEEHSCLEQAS
Description: Inhibition of IKK2.

The target in assay [4] is RAC-alpha serine/threonine-protein kinase (Homo sapiens, UniProt P31749). The experiment in a line: Inhibition of AKT.
Sequence of RAC-alpha serine/threonine-protein kinase (P31749 whole entry): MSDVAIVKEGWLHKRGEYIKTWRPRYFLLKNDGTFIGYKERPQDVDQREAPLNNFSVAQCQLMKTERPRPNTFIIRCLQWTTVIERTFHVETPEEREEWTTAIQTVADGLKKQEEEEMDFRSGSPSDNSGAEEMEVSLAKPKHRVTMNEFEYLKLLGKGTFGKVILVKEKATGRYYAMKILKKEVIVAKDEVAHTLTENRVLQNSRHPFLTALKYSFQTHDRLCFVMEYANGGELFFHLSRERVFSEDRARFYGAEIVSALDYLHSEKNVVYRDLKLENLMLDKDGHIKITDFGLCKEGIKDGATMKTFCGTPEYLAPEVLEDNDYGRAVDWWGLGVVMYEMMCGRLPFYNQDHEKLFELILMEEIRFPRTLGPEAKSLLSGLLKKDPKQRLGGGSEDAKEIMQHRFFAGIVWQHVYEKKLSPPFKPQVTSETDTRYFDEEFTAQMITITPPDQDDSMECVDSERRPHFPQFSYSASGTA
Assay [5] deals with Serine/threonine-protein kinase mTOR (Homo sapiens, UniProt P42345). Description: Inhibition of mTOR.
Assay [6] concerns the target T2, Tyrosine-protein kinase ITK/TSK (Homo sapiens, UniProt Q08881).
T2 sequence (Q08881 whole entry): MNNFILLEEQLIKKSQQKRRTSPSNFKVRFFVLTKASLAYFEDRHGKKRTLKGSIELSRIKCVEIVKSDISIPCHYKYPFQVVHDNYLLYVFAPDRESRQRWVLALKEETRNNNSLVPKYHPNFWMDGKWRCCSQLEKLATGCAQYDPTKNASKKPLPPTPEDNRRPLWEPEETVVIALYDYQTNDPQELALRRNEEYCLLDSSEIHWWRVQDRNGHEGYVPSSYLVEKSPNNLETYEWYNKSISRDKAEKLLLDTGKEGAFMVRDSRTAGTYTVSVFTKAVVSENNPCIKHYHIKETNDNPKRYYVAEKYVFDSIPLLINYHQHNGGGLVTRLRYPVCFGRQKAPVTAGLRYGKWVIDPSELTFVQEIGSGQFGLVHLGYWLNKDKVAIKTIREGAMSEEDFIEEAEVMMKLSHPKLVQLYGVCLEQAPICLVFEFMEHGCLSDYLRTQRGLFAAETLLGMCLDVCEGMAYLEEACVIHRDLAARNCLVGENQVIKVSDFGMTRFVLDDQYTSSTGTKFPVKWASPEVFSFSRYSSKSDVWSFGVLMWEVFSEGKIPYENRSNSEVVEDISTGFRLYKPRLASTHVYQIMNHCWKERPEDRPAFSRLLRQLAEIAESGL
Description: Inhibition of ITK.

Assay [7] addresses Protein kinase C theta type (Homo sapiens, UniProt Q04759). Description: Inhibition of PKCtheta.
The target of assay [8] is Tyrosine-protein kinase BTK (Homo sapiens, UniProt Q06187). The experiment in a line: Inhibition of BTK.
Sequence of Tyrosine-protein kinase BTK (Q06187 whole entry): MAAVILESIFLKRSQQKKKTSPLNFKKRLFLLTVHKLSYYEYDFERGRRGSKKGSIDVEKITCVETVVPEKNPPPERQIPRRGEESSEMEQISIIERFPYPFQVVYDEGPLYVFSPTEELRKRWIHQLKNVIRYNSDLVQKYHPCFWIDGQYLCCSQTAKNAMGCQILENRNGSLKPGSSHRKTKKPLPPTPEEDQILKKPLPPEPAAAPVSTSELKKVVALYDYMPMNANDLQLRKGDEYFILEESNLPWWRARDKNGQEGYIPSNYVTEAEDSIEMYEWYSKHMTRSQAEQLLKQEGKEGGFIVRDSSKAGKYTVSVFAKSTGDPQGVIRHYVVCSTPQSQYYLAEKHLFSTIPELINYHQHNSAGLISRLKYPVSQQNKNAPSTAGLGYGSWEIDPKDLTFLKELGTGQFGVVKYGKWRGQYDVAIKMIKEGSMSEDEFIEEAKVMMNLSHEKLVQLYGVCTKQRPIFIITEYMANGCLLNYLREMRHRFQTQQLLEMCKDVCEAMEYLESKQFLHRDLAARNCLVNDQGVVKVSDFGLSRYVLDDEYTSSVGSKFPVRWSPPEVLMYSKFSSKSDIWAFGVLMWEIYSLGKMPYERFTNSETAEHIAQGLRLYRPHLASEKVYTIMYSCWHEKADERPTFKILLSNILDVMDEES
In assay [9] the target is Proto-oncogene tyrosine-protein kinase Src (Homo sapiens, UniProt P12931). Description: Inhibition of SRC.
Sequence of Proto-oncogene tyrosine-protein kinase Src (P12931 2-536 limits assumed): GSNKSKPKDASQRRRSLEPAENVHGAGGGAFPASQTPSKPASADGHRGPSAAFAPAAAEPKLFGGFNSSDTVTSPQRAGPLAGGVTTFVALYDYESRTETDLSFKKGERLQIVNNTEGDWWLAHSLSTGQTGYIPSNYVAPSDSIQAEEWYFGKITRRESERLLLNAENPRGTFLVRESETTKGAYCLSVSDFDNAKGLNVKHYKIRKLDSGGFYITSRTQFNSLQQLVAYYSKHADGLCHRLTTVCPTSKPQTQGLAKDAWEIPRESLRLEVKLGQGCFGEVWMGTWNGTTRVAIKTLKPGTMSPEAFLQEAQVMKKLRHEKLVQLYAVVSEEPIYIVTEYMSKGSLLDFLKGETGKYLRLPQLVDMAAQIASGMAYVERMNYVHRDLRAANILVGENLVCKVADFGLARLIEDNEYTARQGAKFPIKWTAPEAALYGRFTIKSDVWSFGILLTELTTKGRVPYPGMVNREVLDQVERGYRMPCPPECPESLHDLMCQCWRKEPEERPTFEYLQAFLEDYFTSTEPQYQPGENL
In assay [10] the target is Tyrosine-protein kinase Lyn (Homo sapiens, UniProt P07948). Description: Inhibition of LYN.
Sequence of Tyrosine-protein kinase Lyn (P07948 whole entry, canonical isoform): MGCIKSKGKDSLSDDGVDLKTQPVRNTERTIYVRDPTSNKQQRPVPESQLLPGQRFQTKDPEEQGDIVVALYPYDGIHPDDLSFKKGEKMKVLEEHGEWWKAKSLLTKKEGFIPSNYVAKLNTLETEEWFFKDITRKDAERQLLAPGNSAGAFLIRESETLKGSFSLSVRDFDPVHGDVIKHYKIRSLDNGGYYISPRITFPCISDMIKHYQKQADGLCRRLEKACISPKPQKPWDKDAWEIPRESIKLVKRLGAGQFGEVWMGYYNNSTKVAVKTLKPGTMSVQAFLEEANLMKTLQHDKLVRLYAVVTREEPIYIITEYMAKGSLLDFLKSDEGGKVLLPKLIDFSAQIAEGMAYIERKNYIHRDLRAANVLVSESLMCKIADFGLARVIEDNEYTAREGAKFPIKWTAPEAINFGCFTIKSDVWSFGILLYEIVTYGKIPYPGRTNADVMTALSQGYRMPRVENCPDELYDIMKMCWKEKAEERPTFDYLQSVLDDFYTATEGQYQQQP
For assay [11], the target named is Phosphatidylinositol 4,5-bisphosphate 3-kinase catalytic subunit alpha isoform (Homo sapiens, UniProt P42336). Description: Inhibition of PI3Kalpha.
Sequence of Phosphatidylinositol 4,5-bisphosphate 3-kinase catalytic subunit alpha isoform (P42336 whole entry, canonical isoform): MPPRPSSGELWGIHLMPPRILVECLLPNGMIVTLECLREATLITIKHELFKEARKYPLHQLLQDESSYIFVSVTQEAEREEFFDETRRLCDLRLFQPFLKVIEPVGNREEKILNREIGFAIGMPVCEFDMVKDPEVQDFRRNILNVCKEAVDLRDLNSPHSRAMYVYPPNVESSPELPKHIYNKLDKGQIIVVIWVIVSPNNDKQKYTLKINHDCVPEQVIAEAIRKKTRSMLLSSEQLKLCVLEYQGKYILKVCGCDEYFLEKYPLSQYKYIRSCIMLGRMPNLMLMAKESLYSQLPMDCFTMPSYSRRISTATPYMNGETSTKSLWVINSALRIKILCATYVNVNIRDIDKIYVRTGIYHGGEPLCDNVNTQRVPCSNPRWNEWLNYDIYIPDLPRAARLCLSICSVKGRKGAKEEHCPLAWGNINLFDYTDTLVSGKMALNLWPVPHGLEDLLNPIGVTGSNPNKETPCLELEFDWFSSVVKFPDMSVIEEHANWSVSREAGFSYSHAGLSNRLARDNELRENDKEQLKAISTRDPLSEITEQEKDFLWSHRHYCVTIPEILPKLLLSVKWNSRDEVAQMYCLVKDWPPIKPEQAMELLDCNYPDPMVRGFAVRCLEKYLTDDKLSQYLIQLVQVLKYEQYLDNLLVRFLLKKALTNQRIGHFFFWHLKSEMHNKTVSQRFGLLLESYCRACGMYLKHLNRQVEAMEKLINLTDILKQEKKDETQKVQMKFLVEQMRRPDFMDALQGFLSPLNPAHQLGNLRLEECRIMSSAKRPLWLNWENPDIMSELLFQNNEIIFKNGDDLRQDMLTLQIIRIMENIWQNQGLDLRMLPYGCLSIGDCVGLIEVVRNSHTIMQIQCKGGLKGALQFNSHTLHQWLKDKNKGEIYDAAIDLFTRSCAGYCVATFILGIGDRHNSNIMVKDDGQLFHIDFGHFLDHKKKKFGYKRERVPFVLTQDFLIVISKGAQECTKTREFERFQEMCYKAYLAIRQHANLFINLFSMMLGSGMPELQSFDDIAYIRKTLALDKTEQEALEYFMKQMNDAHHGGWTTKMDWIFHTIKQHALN
Assay [12] concerns the target Serine/threonine-protein kinase B-raf (Homo sapiens, UniProt P15056). Description: Inhibition of B-Raf.

Sequence of Serine/threonine-protein kinase B-raf (P15056 whole entry): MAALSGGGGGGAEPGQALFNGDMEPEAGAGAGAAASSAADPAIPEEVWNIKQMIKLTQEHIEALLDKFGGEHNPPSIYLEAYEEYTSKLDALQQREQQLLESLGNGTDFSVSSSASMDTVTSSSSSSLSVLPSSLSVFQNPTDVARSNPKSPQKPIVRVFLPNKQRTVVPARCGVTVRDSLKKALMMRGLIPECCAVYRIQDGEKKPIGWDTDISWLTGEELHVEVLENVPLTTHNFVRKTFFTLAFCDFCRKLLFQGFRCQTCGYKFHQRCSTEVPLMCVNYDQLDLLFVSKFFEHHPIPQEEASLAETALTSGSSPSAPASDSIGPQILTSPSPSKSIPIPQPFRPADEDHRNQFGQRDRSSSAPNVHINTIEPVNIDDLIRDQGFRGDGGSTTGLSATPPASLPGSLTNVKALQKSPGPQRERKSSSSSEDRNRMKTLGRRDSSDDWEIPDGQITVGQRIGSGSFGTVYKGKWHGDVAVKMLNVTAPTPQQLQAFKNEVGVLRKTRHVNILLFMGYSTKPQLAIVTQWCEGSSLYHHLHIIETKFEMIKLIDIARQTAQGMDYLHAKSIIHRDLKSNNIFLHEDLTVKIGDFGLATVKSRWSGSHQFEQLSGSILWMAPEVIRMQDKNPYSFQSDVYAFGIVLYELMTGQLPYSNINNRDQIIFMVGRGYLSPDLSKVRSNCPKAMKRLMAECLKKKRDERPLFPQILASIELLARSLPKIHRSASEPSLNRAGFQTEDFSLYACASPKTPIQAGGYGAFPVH
Sequence of Protein kinase C theta type (Q04759 whole entry): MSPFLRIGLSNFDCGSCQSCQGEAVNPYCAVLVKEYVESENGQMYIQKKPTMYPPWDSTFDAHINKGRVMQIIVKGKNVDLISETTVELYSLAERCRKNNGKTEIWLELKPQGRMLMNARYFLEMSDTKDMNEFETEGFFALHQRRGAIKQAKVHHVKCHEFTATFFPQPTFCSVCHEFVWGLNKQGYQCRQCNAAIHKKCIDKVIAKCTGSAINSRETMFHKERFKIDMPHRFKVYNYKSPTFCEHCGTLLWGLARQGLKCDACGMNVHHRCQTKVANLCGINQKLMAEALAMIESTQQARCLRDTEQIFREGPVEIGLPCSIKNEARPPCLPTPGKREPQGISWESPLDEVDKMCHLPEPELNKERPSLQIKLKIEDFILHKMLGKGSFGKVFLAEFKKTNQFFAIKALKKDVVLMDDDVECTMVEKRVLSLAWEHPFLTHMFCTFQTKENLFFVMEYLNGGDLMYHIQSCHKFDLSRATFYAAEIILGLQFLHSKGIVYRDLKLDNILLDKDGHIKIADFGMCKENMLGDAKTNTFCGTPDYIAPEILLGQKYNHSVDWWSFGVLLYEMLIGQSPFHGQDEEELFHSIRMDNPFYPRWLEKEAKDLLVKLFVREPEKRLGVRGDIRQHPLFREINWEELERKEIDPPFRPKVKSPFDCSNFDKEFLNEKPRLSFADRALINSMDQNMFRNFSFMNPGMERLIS

A word on the IC50: it is the point on the concentration scale where inhibition reaches its midpoint. On to `O=C(Nc1cccc(-c2ncnc3sc(-c4ccncc4)cc23)c1)c1cccc(C(F)(F)F)c1`, for which the IC50 in the assay on A-375 was 0.23 µM; with LoVo, 0.3 µM; in the assay with HT-29, 0.15 µM; in the assay on Caco-2 it was 1.1 µM; in assay [1] it was 3.1 µM; in [2] it was above 10 µM. Further, the IC50 in assay [3], in assay [4], in assay [5], in assay [6], in assay [7] and in [8] was above 10 µM each time. Further, the 50% inhibitory concentration (IC50) in assay [9], in assay [10] and in assay [11] was above 10 µM each time.

Regarding `O=C(Nc1cccc(-c2ncnc3cc(-c4cccnc4)sc23)c1)c1cccc(C(F)(F)F)c1`, in [12], the IC50 was above 10 µM.

`N#Cc1cnc2sc(-c3cccnc3)cc2c1-c1cccc(NC(=O)c2cccc(C(F)(F)F)c2)c1` had an IC50 in assay [12] above 10 µM.

Regarding `N#Cc1cnc2cc(-c3cccnc3)sc2c1-c1cccc(NC(=O)c2cccc(C(F)(F)F)c2)c1`, in assay [12], the IC50 is above 10 µM.

In the case of `O=C(Nc1cccc(-c2ccnc3cc(-c4cccnc4)nn23)c1)c1cccc(C(F)(F)F)c1`, the IC50 in [12] is above 10 µM.

In turn, `N#Cc1cnc2sc(-c3ccncc3)cc2c1-c1cccc(NC(=O)c2cccc(C(F)(F)F)c2)c1` had an IC50 in assay [12] above 10 µM.

The record behind these values is ChEMBL document CHEMBL1156181, “B-Raf kinase inhibitors: hit enrichment through scaffold hopping” (Bioorg Med Chem Lett, 2010).
